In assay [1] the test system is Staphylococcus aureus ATCC29213. In words: MIC determination in broth microdilution assay. Type of assay: cell-based. The following applies: A: Staphylococcus aureus ATCC29213; MH-broth microdilution.
Assay [2] deals with Staphylococcus aureus ATCC33591 (resistant to methicillin). In words: MIC determination in broth microdilution assay. Type of assay: cell-based. Particulars: B: Staphylococcus aureus ATCC33591 (resistant to methicillin); MH-broth microdilution. (In broth dilution the organism is exposed to a series of concentrations in liquid medium.)
For assay [3], the system named is Staphylococcus intermedius #2357 (clinical isolate from the Copenhagen area). The experiment in a line: MIC determination in broth microdilution assay. Type of assay: cell-based. Particulars: C: Staphylococcus intermedius #2357 clinical isolate; MH-broth microdilution.
Assay [4] relates to Enterococcus faecalis ATCC29212. The experiment in a line: MIC determination in broth microdilution assay. It counts as cell-based. Particulars: D: Enterococcus faecalis ATCC29212; MH-broth microdilution.
For assay [5], the system named is Enterococcus faecium #17501 (vancomycin-resistant clinical isolate). The experiment in a line: MIC determination in broth microdilution assay. Type of assay: cell-based. The following applies: E: Enterococcus faecium #17501 vancomycin-resistant clinical isolate; MH-broth microdilution.
The subject of assay [6] is Streptococcus pneumoniae #998 (clinical isolate). In words: MIC determination in broth microdilution assay. The following applies: F: Streptococcus pneumoniae #998 clinical isolate; MH-broth microdilution. Type of assay: cell-based.
The subject of assay [7] is S. aureus E2371. The experiment in a line: Killing curve determination (time-kill curve). Type of assay: cell-based, Staphylococcus aureus. Particulars: for bactericidal activity (CFU counts per ml in time-kill curve): concentrations above the MIC; for dependence of the bactericidal action: time-kill curve.
Assay [8] concerns Eschericia coli ATCC25922. In words: MIC determination in broth microdilution assay. Type of assay: cell-based. Particulars: for MIC: G: Eschericia coli ATCC25922, MH-broth microdilution; for activity against Eschericia coli (in words): Gram-negative prototype, Table 1.
Assay [9] concerns S. aureus ATCC29213. The experiment in a line: Killing curve determination (time-kill curve). Type of assay: cell-based, Staphylococcus aureus. Particulars: for bactericidal activity (CFU counts per ml in time-kill curve): concentrations above the MIC; for dependence of the bactericidal action: time-kill curve.
For assay [10], the system named is panel of 10 different non-fastidious bacteria growing aerobically. The experiment in a line: Activity against non-fastidious bacteria (panel, discussed in words). Type of assay: cell-based. Particulars: for activity against pathogenic Gram-positive bacteria (in words): Gram-positive non-fastidious bacteria, comparison with Licochalcone A.

The structures appear in SMILES notation. ≈ marks a conversion by molar mass, not a printed value. Entries after “also recorded” stand apart in the source; their conditions may differ.

By MIC is commonly meant the lowest concentration found to suppress growth. Read a high MIC as a less susceptible organism. As for `Cc1cc(C)cc(-c2ccc(OCCN(C)C)c(/C=C/C(=O)c3ccc(N)cc3)c2)c1` [SM008, (E)-1-(4-Amino-phenyl)-3-[4-(2-dimethylamino-ethoxy)-3′,5′-dimethyl-biphenyl-3-yl]-propenone], the minimum inhibitory concentration (MIC) in assay [1] turned out to be 9.4 µM (≈ 3.9 µg/mL); in assay [2] it was 9.4 µM (≈ 3.9 µg/mL); in assay [3], 9.4 µM (≈ 3.9 µg/mL); in assay [4] it was 18.8 µM (≈ 7.79 µg/mL); in [5], 9.4 µM (≈ 3.9 µg/mL); in assay [6], 18.8 µM (≈ 7.79 µg/mL).
Turning to `C[N+](C)(C)CCOc1ccc(-c2ccccc2)cc1/C=C/C(=O)c1cccc(C[N+](C)(C)C)c1.[I-].[I-]` [D-006], the minimum inhibitory concentration (MIC) came to 18.8 µM in [1]; 18.8 µM in assay [2]; 18.8 µM in [3]; 75 µM in [4]; 37.5 µM in [5]; 150 µM in assay [6]. For the same molecule, in assay [7], the “bactericidal activity (CFU counts per ml in time-kill curve)” value was “bactericidal”. Further, the “dependence of the bactericidal action” value in assay [7] is “primarily dependent on the concentration of the test compound”.
Turning to `COc1ccc(C(=O)/C=C/c2cc(-c3cc(C)cc(C)c3)ccc2OCCN(C)C)c(Cl)c1` [SM007, (E)-1-(2-Chloro-4-methoxy-phenyl)-3-[4-(2-dimethylamino-ethoxy)-3′,5′-dimethyl-biphenyl-3-yl]-propenone], the MIC in [1] is 4.7 µM (≈ 2.18 µg/mL); in assay [2], 4.7 µM (≈ 2.18 µg/mL); in assay [3] it was 4.7 µM (≈ 2.18 µg/mL); in [4], 9.4 µM (≈ 4.36 µg/mL); in [5], 4.7 µM (≈ 2.18 µg/mL); in assay [6], 18.8 µM (≈ 8.72 µg/mL).
Turning to `CN(C)CCOc1ccc(-c2ccccc2)cc1/C=C/C(=O)c1cccc(CN(C)C)c1` [SM012, (E)-3-[4-(2-Dimethylamino-ethoxy)-biphenyl-3-yl]-1-(3-dimethylaminomethyl-phenyl)-propenone], the MIC in assay [1], in assay [2], in [3], in assay [4], in [5] and in assay [6] was 18.8 µM (≈ 8.06 µg/mL) each time. Moreover, in [8], the minimum inhibitory concentration (MIC) stood at 37.5 µM (≈ 16.1 µg/mL).
For `COc1ccc(C(=O)/C=C/c2cc(-c3ccccc3OC)ccc2N2CCN(C)CC2)c(F)c1` [SM010, (E)-1-(2-Fluoro-4-methoxy-phenyl)-3-[2′-methoxy-4-(4-methyl-piperazin-1-yl)-biphenyl-3-yl]-propenone], the minimal inhibitory concentration (MIC) came out at 4.7 µM (≈ 2.16 µg/mL) in assay [1]; 9.4 µM (≈ 4.33 µg/mL) in [2]; 9.4 µM (≈ 4.33 µg/mL) in assay [3]; 18.8 µM (≈ 8.66 µg/mL) in [4]; 9.4 µM (≈ 4.33 µg/mL) in assay [5]; 37.5 µM (≈ 17.3 µg/mL) in assay [6].
Turning to `COc1ccc(C(=O)/C=C/c2cc(-c3cc(C)cc(C)c3)ccc2OCC[N+](C)(C)C)c(C[N+](C)(C)C)c1.[I-].[I-]` [D-007], the MIC was determined as 18.8 µM in [1]; 18.8 µM in [2]; 9.4 µM in [3]; 150 µM in assay [4]; 75 µM in [5]; 75 µM in assay [6]. In addition, in assay [8], the MIC is 75 µM. Also, the “bactericidal activity (CFU counts per ml in time-kill curve)” value in assay [9] was “bactericidal”. For the same molecule, the “dependence of the bactericidal action” value in assay [9] is on record as “primarily dependent on incubation time; also recorded: predominantly dependent on the time of incubation with the compound”.
With `Cc1cc(C)cc(-c2ccc(OCC[N+](C)(C)C)c(/C=C/C(=O)c3ccccc3N)c2)c1.[I-]` [D-003, (2-{3-[3-(2-Amino-phenyl)-3-oxo-propenyl]-3′,5′-dimethyl-biphenyl-4-yloxy}-ethyl)-trimethyl-ammonium; iodide], the minimal inhibitory concentration (MIC) in assay [1] was found to be 4.7 µM; in [2] it was 4.7 µM; in [3], 2.4 µM; in [4], 4.7 µM; in [5], 4.7 µM; in assay [6] it was 18.8 µM. In [8], the MIC came to 18.8 µM. Besides, the “activity against Eschericia coli (in words)” value in assay [8] was “high activity”. In assay [7], the “bactericidal activity (CFU counts per ml in time-kill curve)” value is reported as “bactericidal”. The “dependence of the bactericidal action” value in assay [7] was “primarily dependent on the concentration of the test compound; also recorded: predominantly dependent on the concentration of the compound”.
On to `COc1ccc(C(=O)/C=C/c2ccccc2)cc1` [4′-MC, 4′methoxy chalcone, reference compound], for which the “antibacterial effect (in words)” value in assay [10] (whole panel of non-fastidious bacteria) was “no antibacterial effect at all”.
Take `Cc1cc(C)cc(-c2ccc(OCC[N+](C)(C)C)c(/C=C/C(=O)c3ccc(N)cc3)c2)c1` [D-002, (2-{3-[3-(4-Amino-phenyl)-3-oxo-propenyl]-3′,5′-dimethyl-biphenyl-4-yloxy}-ethyl)-trimethyl-ammonium; iodide]: the MIC in assay [1] came out at 9.4 µM; in assay [2] it was 9.4 µM; in assay [3], 9.4 µM; in assay [4], 18.8 µM; in assay [5], 18.8 µM; in [6], 18.8 µM. The molecule further showed an MIC in [8] of 75 µM.
As for `COc1ccc(C(=O)/C=C/c2cc(-c3ccccc3OC)ccc2N2CC[N+](C)(C)CC2)c(F)c1` [D-004, 4-{3-[3-(2-Fluoro-4-methoxy-phenyl)-3-oxo-propenyl]-2′-methoxy-biphenyl-4-yl}-1,1-dimethyl-piperazin-1-ium], the MIC worked out at 18.8 µM in [1]; 9.4 µM in assay [2]; 9.4 µM in assay [3]; 18.8 µM in assay [4]; 18.8 µM in assay [5]; 37.5 µM in [6]. The molecule also showed a minimum inhibitory concentration (MIC) in [8] of 75 µM.
On to `CCCCN(CCCC)c1ccc(/C=C/C(=O)c2cccc(C[N+](C)(C)C)c2)cc1` [D-005, {3-[3-(4-Dibutylamino-phenyl)-acryloyl]-benzyl}-trimethyl-ammonium], for which the MIC in assay [1] is 4.7 µM; in assay [2], 9.4 µM; in assay [3], 4.7 µM; in assay [4] it was 18.8 µM; in assay [5], 9.4 µM; in assay [6] it was 37.5 µM. The molecule further had an MIC in assay [8] of 75 µM. Moreover, the “activity against pathogenic Gram-positive bacteria (in words)” value in assay [10] is “increased potency”. In addition, the “bactericidal activity (CFU counts per ml in time-kill curve)” value in [9] is “bactericidal”. In addition, in assay [9], the “dependence of the bactericidal action” value was “primarily dependent on the concentration of the test compound”.
For `C=CC(C)(C)c1cc(/C=C/C(=O)c2ccc(O)cc2)c(OC)cc1O` [LicA, Licochalcone A], the MIC worked out at 37.5 µM (≈ 12.7 µg/mL) in assay [1]; 37.5 µM (≈ 12.7 µg/mL) in assay [2]; 37.5 µM (≈ 12.7 µg/mL) in assay [3]; 37.5 µM (≈ 12.7 µg/mL) in assay [4]; 37.5 µM (≈ 12.7 µg/mL) in assay [5]; 75 µM (≈ 25.4 µg/mL) in assay [6]. In addition, the “activity against Eschericia coli (in words)” value in [8] is recorded as “only modest or no activity”. In addition, the “activity against pathogenic Gram-positive bacteria (in words)” value in assay [10] is “moderate bactericidal activity”.
`Cc1cc(C)cc(-c2ccc(OCCN(C)C)c(/C=C/C(=O)c3ccccc3N)c2)c1` [SM009, (E)-1-(2-Amino-phenyl)-3-[4-(2-dimethylamino-ethoxy)-3′,5′-dimethyl-biphenyl-3-yl]-propenone]: the minimum inhibitory concentration (MIC) is 4.7 µM (≈ 1.95 µg/mL) in [1]; 4.7 µM (≈ 1.95 µg/mL) in assay [2]; 4.7 µM (≈ 1.95 µg/mL) in [3]; 9.4 µM (≈ 3.9 µg/mL) in [4]; 4.7 µM (≈ 1.95 µg/mL) in [5]; 18.8 µM (≈ 7.79 µg/mL) in [6].
In the case of `COc1ccc(C(=O)/C=C/c2cc(-c3cc(C)cc(C)c3)ccc2OCCN(C)C)c(CN(C)C)c1` [SM013, (E)-3-[4-(2-Dimethylamino-ethoxy)-3′,5′-dimethyl-biphenyl-3-yl]-1-(2-dimethylaminomethyl-4-methoxy-phenyl)-propenone], the minimum inhibitory concentration (MIC) in assay [1] stood at 4.7 µM (≈ 2.29 µg/mL); in [2], 9.4 µM (≈ 4.57 µg/mL); in [3], 18.8 µM (≈ 9.15 µg/mL); in assay [4] it was 4.7 µM (≈ 2.29 µg/mL); in assay [5] it was 4.7 µM (≈ 2.29 µg/mL); in assay [6], 4.7 µM (≈ 2.29 µg/mL). Further, the lowest concentration to inhibit growth in [8] (MIC) was 75 µM (≈ 36.5 µg/mL).
Consider `CCCCN(CCCC)c1ccc(/C=C/C(=O)c2cccc(CN(C)C)c2)cc1` [SM011, (E)-3-(4-Dibutylamino-phenyl)-1-(3-dimethylaminomethyl-phenyl)-propenone], for which the minimum inhibitory concentration (MIC) in [1] was 9.4 µM (≈ 3.69 µg/mL); in assay [2], 9.4 µM (≈ 3.69 µg/mL); in assay [3], 9.4 µM (≈ 3.69 µg/mL); in assay [4], 9.4 µM (≈ 3.69 µg/mL); in assay [5], 9.4 µM (≈ 3.69 µg/mL); in assay [6], 18.8 µM (≈ 7.38 µg/mL).

The record behind these values is patent US20080027075A1, “Quaternary Amino-Function Chalcones” (Lica Pharmaceuticals A/S, priority 2003, published 2008).
